Test results from ChEMBL document CHEMBL5543131, “Discovery of Highly Potent Solute Carrier 13 Member 5 (SLC13A5) Inhibitors for the Treatment of Hyperlipidemia” (J Med Chem, 2024).
Active and inactive are the calls of the source. The calls are words filed in the database; no cut-off is given here.

Key:
[1] = target: Na(+)/citrate cotransporter (Homo sapiens) (UniProt Q86YT5); assay: Potency index, ratio of citrate Km to test compound Km for binding affinity to SLC13A5 (unknown origin)
[2] = target: T1, Solute carrier family 13 member 2 (Homo sapiens) (UniProt Q13183); assay: Inhibition of NaDC1 (unknown origin) citrate transport activity
T1 sequence (whole entry): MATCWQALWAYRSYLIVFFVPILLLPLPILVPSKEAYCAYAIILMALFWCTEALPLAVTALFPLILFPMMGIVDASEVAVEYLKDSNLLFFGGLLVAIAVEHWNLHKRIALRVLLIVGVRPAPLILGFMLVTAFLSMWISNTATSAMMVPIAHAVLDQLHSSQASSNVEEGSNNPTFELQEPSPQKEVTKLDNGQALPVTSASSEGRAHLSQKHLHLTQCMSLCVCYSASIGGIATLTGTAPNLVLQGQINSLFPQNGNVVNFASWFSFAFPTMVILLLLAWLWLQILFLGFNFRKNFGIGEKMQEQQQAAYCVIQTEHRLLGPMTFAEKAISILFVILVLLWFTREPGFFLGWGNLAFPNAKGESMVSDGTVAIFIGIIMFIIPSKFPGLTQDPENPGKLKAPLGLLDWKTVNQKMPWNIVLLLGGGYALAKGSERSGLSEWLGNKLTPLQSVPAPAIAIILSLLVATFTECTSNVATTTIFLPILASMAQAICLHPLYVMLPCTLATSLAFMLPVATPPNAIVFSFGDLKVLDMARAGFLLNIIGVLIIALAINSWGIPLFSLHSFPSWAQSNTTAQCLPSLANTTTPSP

AML12 [3] = assay: Downregulation of ACLY mRNA expression in oleic and palmitic acid induced mouse AML12 cells by RT-qPCR analysis; assay type: functional, cell-based; conditions: dose 3-30 µM
AML12 [4] = assay: Lipid lowering effect on PCN-induced lipid accumulation in mouse AML12 cells assessed as decrease in HMGCR mRNA expression level at 3 to 30 uM preincubated with compound for 30 mins followed by PCN addition and measured after 24 hrs by RT-qPCR analysis; assay type: functional, cell-based; conditions: dose 3-30 µM, time 24.5 hrs
AML12 [5] = assay: Lipid lowering effect on PCN-induced lipid accumulation in mouse AML12 cells assessed as decrease in ACLY mRNA expression level at 3 to 30 uM preincubated with compound for 30 mins followed by PCN addition and measured after 24 hrs by RT-qPCR analysis; assay type: functional, cell-based; conditions: dose 3-30 µM, time 24.5 hrs
Hepatocyte [6] = assay: Lipid lowering effect on PCN-induced lipid accumulation in mouse Primary hepatocyte assessed as decrease in intracellular triglyceride level; assay type: functional, cell-based; conditions: dose 3-30 µM
Hepatocyte [7] = assay: Lipid lowering effect on PCN-induced lipid accumulation in mouse Primary hepatocyte assessed as decrease in ACC1 mRNA expression level at 3 to 30 uM by RT-qPCR analysis; assay type: functional, cell-based; conditions: dose 3-30 µM
Hepatocyte [8] = assay: Lipid lowering effect on PCN-induced lipid accumulation in mouse Primary hepatocyte assessed as decrease in HMGCR mRNA expression level at 3 to 30 uM by RT-qPCR analysis; assay type: functional, cell-based; conditions: dose 3-30 µM
HepG2 [9] = assay: Lipid lowering effect on oleic and palmitic acid induced lipid accumulation in human HepG2 cells assessed as decrease in intracellular total cholesterol level; assay type: functional, cell-based; conditions: dose 3-30 µM
HepG2 [10] = assay: Lipid lowering effect on PCN-induced lipid accumulation in human HepG2 cells assessed as decrease in intracellular triglyceride level; assay type: functional, cell-based; conditions: dose 3-30 µM
HepG2 [11] = assay: Lipid lowering effect on PCN-induced lipid accumulation in human HepG2 cells assessed as decrease in HMGCR mRNA expression level at 3 to 30 uM by RT-qPCR analysis; assay type: functional, cell-based; conditions: dose 3-30 µM
HepG2 [12] = assay: Lipid lowering effect on PCN-induced lipid accumulation in human HepG2 cells assessed as decrease in ACC1 mRNA expression level at 3 to 30 uM by RT-qPCR analysis; assay type: functional, cell-based; conditions: dose 3-30 µM
Mus musculus [13] = assay: Lipid lowering activity in starvation-induced hyperlipidemic male C57BL/6J mouse model assessed as decrease in triglyceride level in liver at 10 to 30 mg/kg, ip starved for 48 hrs followed by compound administration and measured after 2 hrs; assay type: functional, organism-based; conditions: dose 10-30 mg/kg
Mus musculus [14] = assay: Lipid lowering activity in starvation-induced hyperlipidemic male C57BL/6J mouse model assessed as decrease in NEFA level in liver at 10 to 30 mg/kg, ip starved for 48 hrs followed by compound administration and measured after 2 hrs; assay type: functional, organism-based; conditions: dose 10-30 mg/kg
Mus musculus [15] = assay: Lipid lowering activity in starvation-induced hyperlipidemic male C57BL/6J mouse model assessed as downregulation of ACC1 gene expression level starved for 48 hrs followed by oral administration of compound and measured after 2 hrs by RT-qPCR analysis; assay type: functional, organism-based; conditions: dose 10-30 mg/kg
Mus musculus [16] = assay: Lipid lowering activity in starvation-induced hyperlipidemic male C57BL/6J mouse model assessed as downregulation of FASN gene expression level starved for 48 hrs followed by oral administration of compound and measured after 2 hrs by RT-qPCR analysis; assay type: functional, organism-based; conditions: dose 10-30 mg/kg
Mus musculus [17] = assay: Lipid lowering activity in starvation-induced hyperlipidemic male C57BL/6J mouse model assessed as decrease in LDL to HDL cholesterol ratio at 10 to 30 mg/kg, po starved for 48 hrs followed by compound administration and measured after 2 hrs; assay type: functional, organism-based; conditions: dose 10-30 mg/kg
Mus musculus [18] = assay: Lipid lowering activity in PCN-induced hyperlipidemic male C57BL/6J mouse model assessed as decrease in liver triglyceride level at 10 to 30 mg/kg, IG preadministered with compound for 15 to 30 mins followed by PCN administration and measured after 7 days; assay type: functional, organism-based; conditions: dose 10-30 mg/kg, time 15-10110 min
Mus musculus [19] = assay: Lipid lowering activity in PCN-induced hyperlipidemic male C57BL/6J mouse model assessed as decrease in plasma total cholesterol level at 10 to 30 mg/kg, IG preadministered with compound for 15 to 30 mins followed by PCN administration and measured after 7 days; assay type: functional, organism-based; conditions: dose 10-30 mg/kg, time 15-10110 min
Mus musculus [20] = assay: Lipid lowering activity in PCN-induced hyperlipidemic male C57BL/6J mouse model assessed as decrease in liver total cholesterol level at 10 to 30 mg/kg, IG preadministered with compound for 15 to 30 mins followed by PCN administration and measured after 7 days; assay type: functional, organism-based; conditions: dose 10-30 mg/kg, time 15-10110 min
Mus musculus [21] = assay: Lipid lowering activity in PCN-induced hyperlipidemic male C57BL/6J mouse model assessed as decrease in ACC1 mRNA expression level preadministered intragastrically with compound for 15 to 30 mins followed by PCN administration and measured after 7 days by RT-qPCR analysis; assay type: functional, organism-based; conditions: dose 10-30 mg/kg, route ig, time 15-10110 min
Mus musculus [22] = assay: Lipid lowering activity in PCN-induced hyperlipidemic male C57BL/6J mouse model assessed as decrease in FASN mRNA expression level preadministered intragastrically with compound for 15 to 30 mins followed by PCN administration and measured after 7 days by RT-qPCR analysis; assay type: functional, organism-based; conditions: dose 10-30 mg/kg, route ig, time 15-10110 min
Mus musculus [23] = assay: Effect on SLC13A5 mRNA expression in PCN-induced hyperlipidemic male C57BL/6J mouse model at 10 to 30 mg/kg, IG preadministered with compound for 15 to 30 mins followed by PCN administration and measured after 7 days by RT-qPCR analysis; assay type: functional, organism-based; conditions: dose 10-30 mg/kg, time 15-10110 min
Mus musculus [24] = assay: Lipid lowering activity in PCN-induced hyperlipidemic male C57BL/6J mouse model assessed as decrease in lipid accumulation in liver at 30 mg/kg, IG preadministered with compound for 15 to 30 mins followed by PCN administration and measured after 7 days by H&E staining based analysis; assay type: functional, organism-based; conditions: time 15-10110 min

Sequence of Na(+)/citrate cotransporter (Homo sapiens) (Q86YT5 whole entry, looked up): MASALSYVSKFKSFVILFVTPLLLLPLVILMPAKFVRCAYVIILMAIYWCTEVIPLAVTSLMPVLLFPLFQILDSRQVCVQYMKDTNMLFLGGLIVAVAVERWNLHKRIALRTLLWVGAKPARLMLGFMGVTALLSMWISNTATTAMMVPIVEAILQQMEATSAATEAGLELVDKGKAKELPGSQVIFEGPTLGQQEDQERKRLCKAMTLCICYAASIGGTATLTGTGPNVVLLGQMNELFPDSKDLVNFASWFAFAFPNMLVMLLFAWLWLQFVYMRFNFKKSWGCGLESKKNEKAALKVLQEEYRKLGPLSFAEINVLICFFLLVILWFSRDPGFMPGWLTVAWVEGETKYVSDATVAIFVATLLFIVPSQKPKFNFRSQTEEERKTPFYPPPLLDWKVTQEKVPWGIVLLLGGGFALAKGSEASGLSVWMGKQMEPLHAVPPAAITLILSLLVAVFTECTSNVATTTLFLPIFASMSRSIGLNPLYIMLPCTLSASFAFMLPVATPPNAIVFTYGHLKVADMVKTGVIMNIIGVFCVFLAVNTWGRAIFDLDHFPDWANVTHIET

## O=C(O)CC(O)(CCc1ccc(-c2ccccc2)cc1)C(=O)O (centres undefined)
[1]
  Ratio: 2
[2]
  inhibition: inactive
AML12 [3]
  Activity: Dose-Dependent Effect
AML12 [4]
  Activity: Active
AML12 [5]
  Activity: Active
Hepatocyte [6]
  Activity: Dose-Dependent Effect
Hepatocyte [7]
  Activity: Active
Hepatocyte [8]
  Activity: Active
HepG2 [9]
  Activity: Dose-Dependent Effect
HepG2 [10]
  Activity: Dose-Dependent Effect
HepG2 [11]
  Activity: Active
HepG2 [12]
  Activity: Active
Mus musculus [13]
  Activity: Active
Mus musculus [14]
  Activity: Active
Mus musculus [15]
  Activity: Dose-Dependent Effect
Mus musculus [16]
  Activity: Dose-Dependent Effect
Mus musculus [17]
  Activity: Active
Mus musculus [18]
  Activity: Active
Mus musculus [19]
  Activity: Active
Mus musculus [20]
  Activity: Active
Mus musculus [21]
  Activity: Dose-Dependent Effect
Mus musculus [22]
  Activity: Dose-Dependent Effect
Mus musculus [23]
  Activity: inactive
Mus musculus [24]
  Activity: Active
